Entries after “also recorded” stand apart in the source; their conditions may differ.
Assays:
[1] = target: T1, hA1AR (Homo sapiens, UniProt P30542); assay: Assay of AE (allosteric enhancer) activity: slowing of 125I-ABA dissociation from the A1AR-G protein ternary complex; type: binding; conditions: CHO-K1 membranes; for AE Score, %: 0.1 mM final AE, specifically bound 125I-ABA remaining after 10 minutes of dissociation, Mean ± SEM (N = 3); for AE activity (in words): hA1AR
T1 construct: expressed in transfected cells; membranes
T1 sequence (P30542 1-326): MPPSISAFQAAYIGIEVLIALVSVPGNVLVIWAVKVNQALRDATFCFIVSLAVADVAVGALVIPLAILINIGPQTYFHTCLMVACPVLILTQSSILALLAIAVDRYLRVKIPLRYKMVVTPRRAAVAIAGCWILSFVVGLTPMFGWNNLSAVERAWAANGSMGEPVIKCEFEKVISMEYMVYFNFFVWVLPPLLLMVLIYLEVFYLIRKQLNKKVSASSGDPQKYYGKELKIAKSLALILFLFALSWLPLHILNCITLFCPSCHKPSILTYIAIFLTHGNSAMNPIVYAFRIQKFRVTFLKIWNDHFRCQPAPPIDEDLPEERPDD
Source text: The allosteric enhancer (AE) activity was studied at the human A1AR (hA1AR) of a panel of compounds consisting of nine 2-amino-3-aroylthiophenes, (3a-i), eight 2-amino-3-benzoyl-4,5-dimethylthiophenes (13a-h), […] 3-aroyl-2-carboxy-4,5-dimethylthiophenes, (17a-e), ten 2-amino-3-benzoyl-5,6-ihydro-4H-cyclopenta[b]thiophenes, (19a-I), fourteen 2-amino-3-benzoyl-4,5,6,7-tetrahyd robenzo-[b]thiophenes, (20a-n), and fifteen 2-amino-3-benzoyl-5,6,7,8-tetrahydro-4H-cyclohepta[b]thiophenes, (21a-o). An in vitro assay employing the A1AR agonist ^125I-N^6-aminobenzyladenosine (^125I-ABA) and membranes from CHO-K1 cells stably expressing the hA1AR measured, as an index of AE activity, the ability of a candidate AE to slow the dissociation of the radioligand from the A1AR-G protein ternary complex.
The assay of AE activity consisted of three phases: formation of the ^125I-ABA-A1AR-G protein ternary complex; binding of the AE to the allosteric site, and dissociation of the complex by adding a combination of an A1AR antagonist (100 μM cyclopentyltheophylline) and 50 µM GTPγS. This procedure detects only AE activity since phase 3 (dissociation) is affected only by the allosteric activity of the test compound and is not affected by competitive antagonist activity. GTPγS is added to accelerate the dissociation process. […] The assay employed membranes from CHO-K1 cells stably expressing the hA1AR. For agonist binding to equilibrium, the incubation mixture consisted of 10 mM HEPES, pH 7.2, containing 0.5 mM MgCl2, 1 U/mL adenosine deaminase, 0.5 nM ^125I-ABA and 10 μg of membrane protein in a final volume of 100 μL. This phase of the assay was allowed to proceed to equilibrium (>90 minutes) at room temperature. At that point phase 2 was initiated by adding 50 μL of a 0.3 mM solution (0.1 mM final) of a candidate AE or DMSO vehicle to rapidly occupy the allosteric site. Stock solutions of AEs (10 mM) were prepared in DMSO. Five minutes later phase 3 was initiated by the addition of 50 μL of a solution containing 400 μM 8-cyclopentyltheophylline and 200 μM GTPγS. Ten minutes later, residual radioligand bound to Aireceptors was trapped on Whatman GF/C glass fiber filters using a Brandel cell harvester, washed 3 times over a 20 second interval and counted in a γ-counter. The percentage of specifically bound agonist remaining after 10 minutes of dissociation was used to calculate the “score” of AE activity:
AE activity score=100×(B−Bo)/(Beq−Bo)
Where B=residual binding (cpm) bound at the end of 10 minutes of dissociation in the presence of an AE, Bo=residual binding (cpm) at the end of 10 minutes of dissociation in the absence of an AE, and Beq=cpm bound at the end of phase 2. A compound with no AE activity has a score of 0 in this assay. An AE which completely arrests agonist dissociation will have a score of 100.

[2] = target: T2, A1AR (Homo sapiens, UniProt P30542); assay: A1AR antagonistic activity: competition with equilibrium binding of [3H]CPX; conditions: for inhibition at 100 µM / Antagonist activity, % (% inhibition of specific equilibrium binding of [3H]8-cyclopentyl-1,3-dipropylxanthine): N = 3, 100 μM; for inhibition at 100 µM: read-out: Antagonist activity, % (% inhibition of specific equilibrium binding of [3H]8-cyclopentyl-1,3-dipropylxanthine)
T2 sequence (P30542 1-326): T1 sequence (P30542 1-326)
Source text: Several of the candidate AEs had substantial antagonistic activity. However, the AE and antagonist activities are unrelated (r^2=0.057, n=28).

[3] = test system: adenosine A1 receptors; conditions: background statement, cited from earlier work

SMILES | AE Score, % [1] | melting point | Antagonist activity, % (% inhibition of specific equilibrium binding of [3H]8-cyclopentyl-1,3-dipropylxanthine) [2] | AE activity (in words) [1] | further results
Nc1sccc1C(=O)c1ccccc1 [Compound 3a, 2-Amino-3-benzoylthiophene] | 0.2 ± 0.01% | 147 °C | – | – | inhibition at 100 µM [2]: 24%
Nc1sc2c(c1C(=O)c1ccccc1)CCCC2 [Compound 20b] | 19 ± 5% | – | 35% | – | –
Nc1sc2c(c1C(=O)c1cccc(F)c1)CCCC2 [Compound 20c] | 22 ± 5% | – | 40% | – | –
Nc1sc2c(c1C(=O)c1ccc(Cl)cc1)CCCC2 [Compound 20g] | 68 ± 10% | – | 9% | – | –
Cc1sc(N)c(C(=O)c2cccc(C(F)(F)F)c2)c1C [PD 81,723] | – | – | – | – | enhancement at A1 receptors [3]: enhancement at A1 receptors of all species tested to date; selectivity for adenosine A1 receptors ([3]; other adenosine receptor subtypes, other classes of receptors): no effects on other adenosine receptor subtypes or on other classes of receptors
Nc1sc2c(c1C(=O)c1ccc(Br)cc1)CCCCC2 [Compound 21h] | 86 ± 3.8% | – | 12% | very high AE activity | antagonist activity (in words) ([2]; at 100 μM): nearly devoid of antagonist activity
Nc1sc2c(c1C(=O)c1ccc(-c3ccccc3)cc1)CCCC2 [Compound 20l, 2-Amino-3-(4-phenylbenzoyl)-4,5,6,7-tetrahydrobenzo[b]thiophene] | 33 ± 2% | 110 °C | – | excellent activity | –
CCOC(=O)c1c(N)sc2c1CCCC2 [Compound 20a] | 3.5 ± 1.8% | – | 57% | did not support AE activity; also recorded: None of the cycloalkylthiophenes having a 3-carboxyethyl substituent, namely, 19a, 20a and 21a, was active | –
NC1SC2=CCCC2=C1C(=O)c1cccc(Br)c1 (stereo not drawn) [Compound 19d, 2-Amino-3-(3-bromobenzoyl)-4,5-dihydrocyclopenta[b]thiophene] | 13 ± 3% | 202 °C | – | – | inhibition at 100 µM [2]: 76%

From patent publication US6713638B2, “2-amino-3-aroyl-4,5 alkylthiophenes: agonist allosteric enhancers at human A1 adenosine receptors” (priority 2001, dated 2004)
